Data as given in US20230234897A1, “USE OF POLYAMINES, TYRAMINE AND/OR A PLANT EXTRACT CONTAINING SAME TO STABILISE MICROORGANISMS” (AGRO INNOVATION INTERNATIONAL, priority 2020, published 2023).

Tested on: Azotobacter chroococcum
Assay: Growth of Azotobacter chroococcum with or without osmotic stress (0.3 M NaCl), glycine betaine versus extract
Type: cell-based
Settings: for Bacterial concentration at 72 h / Survival rate relative to the strain under non-stressing conditions without addition of the extract / Survival rate relative to the strain under salt stress conditions, without addition of the extract: extract at 10 g of polyamines/kg of medium, glycine betaine quantity not given
Description: The effect of each of the extracts prepared according to example 1a), 1b) or 1c) was studied on the growth of various bacterial strains, under conditions with or without thermal stress, osmotic stress or acid/base stress. The extracts obtained in examples 1a), 1b) or 1c) were added to a culture medium in different quantities, in order to obtain the desired quantities of polyamines and/or tyramine.
The study was carried out in Spizizen Minimal Medium SMM culture broth ((NH4)2SO4: 2 g/L, K2HPO4: 14 g/L, KH2PO4: 6 g/L, MgSO4: 0.2 g/L, C6H5Na3O7·2H2O: 1 g/L, D-glucose: 5 g/L).
The starting inoculate for each strain was calibrated by OD measurement (620 nm) in order to obtain an initial concentration of approximately 10^3-10^4 CFU/mL. The strains were incubated for 24 to 72 h. Counts were performed in TSA agar (Tryptone Soya Agar) at TO and after 24 h, 48 h or 72 h incubation at 30° C. (+/−1° C.), according to the studied strains.
For each of the strains, the survival rate in the presence of the extract and/or stress was calculated relative to the bacterial concentration obtained at the end of the kinetics (at T=24 h, 48 h or 72 h) in the control mode containing the strain alone, under non-stressed conditions, without adding the extract. Similarly, the survival rate in the presence or absence of the extract and/or stress was calculated relative to the bacterial concentration obtained at the end of the kinetics in the mode containing the strain alone, under stress conditions, without adding the extract.
The strain Azotobacter chroococcum was tested under osmotic stress conditions, in other words by adding 0.3 M NaCl to the culture medium at time T=0.
The glycine betaine, known as an osmoprotectant, was tested in comparison with the Ascophyllum nodosum extract prepared according to example 1a).

[1] = non-stressing conditions (no NaCl), 72 h

With `C[N+](C)(C)CC(=O)[O-]` [glycine betaine] the “Bacterial concentration at 72 h” value [1] was 1.1 · 10^8 CFU/mL, the “Survival rate relative to the strain under non-stressing conditions without addition of the extract” value [1] was 0.3 log and the “Survival rate relative to the strain under salt stress conditions, without addition of the extract” value [1] was 5.1 log. The “stabilisation of Azotobacter chroococcum under osmotic stress” value (osmotic stress 0.3 M NaCl) was “no stabilisation is observed”, the “loss in the bacterial concentration after 72 h incubation relative to the stress conditions” value (salt stress 0.3 M NaCl, 72 h) was 0.8 logs and the “Bacterial concentration at 72 h” value (salt stress 0.3 M NaCl, 72 h) was 1.4 · 10^2 CFU/mL. The “Survival rate relative to the strain under non-stressing conditions without addition of the extract” value (salt stress 0.3 M NaCl, 72 h) was −5.6 log and the “Survival rate relative to the strain under salt stress conditions, without addition of the extract” value (salt stress 0.3 M NaCl, 72 h) was −0.8 log.
